Legend:
Type in all cases: cell-based
LnCaP cells [1] = experiment: M30 Cytodeath antibody staining of caspase-cleaved cytokeratin 18; details: paclitaxel treated LnCaP cells
Method: Cells of the prostate cell line LnCaP were cultured with or without paclitaxel and spiked into blood of healthy donors.

[2] = Viability of LnCaP cells by trypan blue exclusion after culture with paclitaxel; details: human, LnCaP prostate cell line; LnCaP cells cultured with 40 nM paclitaxel for 72 hours
Method: (§1) To investigate the effect of apoptosis induced by cytotoxic agents on flow cytometric and CELLSPOTTER® analysis of CTC, cells from the prostate cell line LnCaP were cultured in the presence or absence of 40 nM paclitaxel for 72 hours. […] The treated and untreated LnCaP cells were spiked into blood of healthy donors, selected by the ferrofluid methods described above, and analyzed by the CELLSPOTTER® system.

LnCaP cells [3] = experiment: CELLSPOTTER analysis of paclitaxel treated LnCaP cells spiked into blood of healthy donors (model to mimic tumor cell death); details: immunomagnetically selected
Method: as §1

Q: Which “staining with M30 Cytodeath antibody (early apoptosis)” value (LnCaP cells [1]) does the source give for `CC(=O)O[C@H]1C(=O)[C@@]2(C)[C@H]([C@H](OC(=O)c3ccccc3)[C@]3(O)C[C@H](OC(=O)[C@H](O)[C@@H](NC(=O)c4ccccc4)c4ccccc4)C(C)=C1C3(C)C)[C@]1(OC(C)=O)CO[C@@H]1C[C@@H]2O` [paclitaxel] here?
A: stained with M30

Q: And the viability at 72 h, 40 nM [2]?
A: 33%

Q: What about the “signs of apoptosis (morphology, punctate cytokeratin staining)” value (LnCaP cells [3]) of the same compound?
A: displayed signs of apoptosis

Source: patent US8329422B2, “Analysis of circulating tumor cells, fragments, and debris” (Veridex LLC, priority 2001, dated 2012)
